Target: D(3) dopamine receptor (Rattus norvegicus, UniProt P19020)
Experiment: biochemical

Chain of D(3) dopamine receptor (P19020 whole entry): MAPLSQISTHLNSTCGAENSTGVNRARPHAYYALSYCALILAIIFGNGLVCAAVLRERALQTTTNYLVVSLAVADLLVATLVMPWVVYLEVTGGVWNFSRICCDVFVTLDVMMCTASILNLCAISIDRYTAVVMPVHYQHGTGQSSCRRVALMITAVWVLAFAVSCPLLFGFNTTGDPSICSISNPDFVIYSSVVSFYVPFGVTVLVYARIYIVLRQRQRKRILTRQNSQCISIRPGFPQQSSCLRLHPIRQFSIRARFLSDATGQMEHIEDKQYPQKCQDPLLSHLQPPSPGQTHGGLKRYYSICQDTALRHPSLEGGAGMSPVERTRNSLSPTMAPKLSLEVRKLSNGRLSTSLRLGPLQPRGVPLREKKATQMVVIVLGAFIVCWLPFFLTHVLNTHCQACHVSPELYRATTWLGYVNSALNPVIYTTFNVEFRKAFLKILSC

In the case of `CCCN(CCC)C1CCc2cccc(O)c2C1` (stereo unspecified) [8-OH-DPAT], the Ki is reported as 0.248 µM.
